What all share (assay): Post-emergence efficacy, glasshouse
Common to all, as to type: in vivo

The subject of one assay is Setaria faberi (SETFA). The following applies: Setaria faberi, post-emergence, 312 h, evaluated after 13 days, 100=total damage to plant, 0=no damage to plant, read-out: Control of weed species after post-emergence application, SETFA; for pest or weed control at 1000 g/ha: Application Rate 1000 g/Ha; for pest or weed control at 500 g/ha: Application Rate 500 g/Ha. Put shortly: (§1)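 Visual damage score, 0–100 (100 = total plant damage), 13 days after spraying. Spray: IF50/acetone formulation diluted in water with 0.25% or 1% sodium lauryl ether sulphate + 1% ammonium sulphate, applied to 14-day-old pot-grown plants.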

Assay [1] concerns Echinochloa crus-galli (ECHCG). The following applies: Echinochloa crus-galli, post-emergence, 312 h, evaluated after 13 days, 100=total damage to plant, 0=no damage to plant, read-out: Control of weed species after post-emergence application, ECHCG; for pest or weed control at 1000 g/ha: Application Rate 1000 g/Ha; for pest or weed control at 500 g/ha: Application Rate 500 g/Ha. Put shortly:
as §1

Assay [2] has as its system Ipomoea hederacea (IPOHE). The settings on record: Ipomoea hederacea, post-emergence, 312 h, evaluated after 13 days, 100=total damage to plant, 0=no damage to plant, read-out: Control of weed species after post-emergence application, IPOHE; for pest or weed control at 1000 g/ha: Application Rate 1000 g/Ha; for pest or weed control at 500 g/ha: Application Rate 500 g/Ha. An outline of the steps: as §1

The next assay concerns Eleusine indica (ELEIN). The following applies: Eleusine indica, post-emergence, 312 h, evaluated after 13 days, 100=total damage to plant, 0=no damage to plant, read-out: Control of weed species after post-emergence application, ELEIN; for pest or weed control at 1000 g/ha: Application Rate 1000 g/Ha; for pest or weed control at 500 g/ha: Application Rate 500 g/Ha. An outline of the steps:
as §1

The subject of assay [3] is Chenopodium album (CHEAL). The following applies: Chenopodium album, post-emergence, 312 h, evaluated after 13 days, 100=total damage to plant, 0=no damage to plant, read-out: Control of weed species after post-emergence application, CHEAL; for pest or weed control at 1000 g/ha: Application Rate 1000 g/Ha; for pest or weed control at 500 g/ha: Application Rate 500 g/Ha. Put shortly: as §1

The test system of assay [4] is Euphorbia heterophylla (EPHHL). The settings on record: Euphorbia heterophylla, post-emergence, 312 h, evaluated after 13 days, 100=total damage to plant, 0=no damage to plant, read-out: Control of weed species after post-emergence application, EPHHL; for pest or weed control at 1000 g/ha: Application Rate 1000 g/Ha; for pest or weed control at 500 g/ha: Application Rate 500 g/Ha. Put shortly:
as §1

Assay [5] has as its system Amaranthus palmeri (AMAPA). The following applies: Amaranthus palmeri, post-emergence, 312 h, evaluated after 13 days, 100=total damage to plant, 0=no damage to plant, read-out: Control of weed species after post-emergence application, AMAPA; for pest or weed control at 1000 g/ha: Application Rate 1000 g/Ha; for pest or weed control at 500 g/ha: Application Rate 500 g/Ha. An outline of the steps:
as §1

The next assay has as its system Lolium perenne (LOLPE). The following applies: Lolium perenne, post-emergence, 312 h, evaluated after 13 days, 100=total damage to plant, 0=no damage to plant, read-out: Control of weed species after post-emergence application, LOLPE; for pest or weed control at 1000 g/ha: Application Rate 1000 g/Ha; for pest or weed control at 500 g/ha: Application Rate 500 g/Ha. Put shortly:
as §1

Assay [6] concerns Digitaria sanguinalis (DIGSA). The settings on record: Digitaria sanguinalis, post-emergence, 312 h, evaluated after 13 days, 100=total damage to plant, 0=no damage to plant, read-out: Control of weed species after post-emergence application, DIGSA; for pest or weed control at 1000 g/ha: Application Rate 1000 g/Ha; for pest or weed control at 500 g/ha: Application Rate 500 g/Ha. An outline of the steps: as §1

Regarding `CC(C)S(=O)(=O)[N-]C(=O)c1c[n+](C)nc2ccccc12` [Compound A34], the pest or weed control at 1000 g/ha amounted to 60% in the assay with Setaria faberi (SETFA); 20% in assay [1]; 50% in assay [2]; 40% with Eleusine indica (ELEIN); 50% in assay [3]; 60% in assay [4]. For the same molecule, the pest or weed control at 1000 g/ha was 20% in assay [5], 0% in the assay with Lolium perenne (LOLPE) and 30% in assay [6].

Turning to `CC[n+]1cc(P(=O)([O-])OC)c2ccccc2n1` [Compound A65], the pest or weed control at 1000 g/ha amounted to 80% in the assay on Setaria faberi (SETFA); 50% in assay [1]; 70% in [2]; 80% in the assay with Eleusine indica (ELEIN); 90% in [3]; 100% in [4]. In addition, the pest or weed control at 1000 g/ha in [5] is 90%; in the assay on Lolium perenne (LOLPE) it was 40%; in assay [6], 90%.

Take `CNS(=O)(=O)[N-]C(=O)c1c[n+](C)nc2ccccc12` [Compound A10, 2-methyl-N-(methylsulfamoyl)cinnolin-2-ium-4-carboxamide]: the pest or weed control at 1000 g/ha in the assay with Setaria faberi (SETFA) is 50%; in assay [1], 50%; in [2], 30%; with Eleusine indica (ELEIN) it was 60%; in [3] it was 70%; in assay [4], 70%. The pest or weed control at 1000 g/ha in assay [5] was 80%; in the assay on Lolium perenne (LOLPE), 30%; in assay [6] it was 70%.

In the case of `C[n+]1cc(C(=O)[N-]c2nnn[nH]2)c2ccccc2n1` [Compound A17], the pest or weed control at 1000 g/ha in the assay with Setaria faberi (SETFA) was 10%; in [1], 0%; in assay [2], 40%; with Eleusine indica (ELEIN), 20%; in assay [3], 30%; in [4], 20%. Moreover, the figures for the pest or weed control at 1000 g/ha (in assay [5]; in the assay on Lolium perenne (LOLPE); in assay [6]) were 50%, 10% and 10%, respectively.

Turning to `CC(C)OP(=O)([O-])c1c[n+](C(C)C)nc2ccccc12` [Compound A76, isopropoxy-(2-isopropylcinnolin-2-ium-4-yl)phosphinate], the pest or weed control at 500 g/ha in the assay with Setaria faberi (SETFA) was determined as 80%; in [1], 70%; in [2] it was 90%; in the assay on Eleusine indica (ELEIN) it was 100%; in assay [3], 90%; in assay [4], 100%. Further, the pest or weed control at 500 g/ha in [5] was determined as 100%; with Lolium perenne (LOLPE), 50%; in assay [6] it was 80%.

On to `C[n+]1cc(C(=O)[N-]S(C)(=O)=O)c2ccccc2n1` [Compound A5, (2-methylcinnolin-2-ium-4-carbonyl)-methylsulfonyl-azanide], for which the pest or weed control at 1000 g/ha was 70% in the assay with Setaria faberi (SETFA); 50% in [1]; 90% in assay [2]; 90% in the assay with Eleusine indica (ELEIN); 90% in [3]; 90% in assay [4]. The pest or weed control at 1000 g/ha was determined as 100% in [5], 50% with Lolium perenne (LOLPE) and 90% in assay [6].

With `C[n+]1cc(C(=O)[N-]S(=O)(=O)c2ccccc2)c2ccccc2n1` [Compound A35], the pest or weed control at 1000 g/ha in the assay on Setaria faberi (SETFA) is 10%; in assay [1] it was 0%; in assay [2], 20%; with Eleusine indica (ELEIN) it was 0%; in [3], 0%; in assay [4], 40%. For the same molecule, the pest or weed control at 1000 g/ha in [5] came out at 20%; with Lolium perenne (LOLPE), 0%; in [6], 10%.

For the molecule `O=C(O)C[n+]1cc(C(=O)[O-])c2ccccc2n1` [Compound A23, 2-(carboxymethyl)cinnolin-2-ium-4-carboxylate], the pest or weed control at 1000 g/ha amounted to 30% in the assay with Setaria faberi (SETFA); 30% in assay [1]; 20% in assay [2]; 40% in the assay on Eleusine indica (ELEIN); 50% in [3]; 20% in [4]. The pest or weed control at 1000 g/ha stood at 50% in assay [5], 10% in the assay with Lolium perenne (LOLPE) and 70% in [6].

Regarding `C[n+]1cc(CCC(=O)O)c2ccccc2n1` [Compound A56, 3-(2-methylcinnolin-2-ium-4-yl)propanoic acid 2,2,2-trifluoroacetate], the pest or weed control at 500 g/ha is 60% in the assay with Setaria faberi (SETFA); 70% in assay [1]; 30% in [2]; 70% with Eleusine indica (ELEIN); 90% in [3]; 40% in assay [4]. Moreover, the values for the pest or weed control at 500 g/ha (in assay [5]; in the assay on Lolium perenne (LOLPE); in assay [6]) were 100%, 10% and 100%, respectively.

As to `CCOC(=O)Cc1c[n+](C)nc2ccccc12` [Compound A52, ethyl 2-(2-methylcinnolin-2-ium-4-yl)acetate 2,2,2-trifluoroacetate], the pest or weed control at 500 g/ha in the assay on Setaria faberi (SETFA) is 10%; in [1], 10%; in assay [2] it was 20%; in the assay with Eleusine indica (ELEIN), 70%; in assay [3] it was 60%; in assay [4] it was 40%. Also, the pest or weed control at 500 g/ha in assay [5] is 50%; in the assay with Lolium perenne (LOLPE), 10%; in [6], 30%.

Turning to `CCOP(=O)(O)c1c[n+](CCO)nc2ccccc12` [Compound A71], the pest or weed control at 1000 g/ha with Setaria faberi (SETFA) is 100%; in assay [1], 30%; in assay [2] it was 80%; in the assay on Eleusine indica (ELEIN) it was 90%; in assay [3] it was 90%; in [4], 100%. Also, the pest or weed control at 1000 g/ha in assay [5] came out at 100%; with Lolium perenne (LOLPE), 40%; in assay [6] it was 90%.
